# Molecular target: T1, alpha7 nicotinic acetylcholine receptor (Rattus norvegicus, UniProt Q05941)
# T1 construct: expressed in transfected cells
# Type: cell-based
# Conditions: agonist concentration-response 0.001 to 30 microM; rat alpha7 nAChR in GH4C1 cells; assay validation
# Excerpt: Rat GH4C1 cells were then transfected with the rat receptor, cloned and analyzed for functional alpha7 nicotinic receptor expression employing a FLIPR assay to measure changes in intracellular calcium concentrations. […] Three cell lines were then expanded and one characterised pharmacologically (see Table 2 below) prior to its subsequent use for compound screening.
# The FLIPR system allows the measurements of real time Ca^2+-concentration changes in living cells using a Ca^2+ sensitive fluorescence dye (such as Fluo4). This instrument enables the screening for agonists and antagonists for alpha 7 nAChR channels stably expressed in GH4C1 cells.
# GH4C1 cells stably transfected with rat-alphα7-nAChR (see above) were used. These cells are poorly adherent and therefore pretreatment of flasks and plates with poly-D-lysine was carried out. Cells are grown in 150 cm^2 T-flasks, filled with 30 ml of medium at 37° C. and 5% CO2.
# EC50 and IC50 values were calculated using the IDBS XLfit4.1 software package employing a sigmoidal concentration-response (variable slope) equation:
# The compounds were tested using the functional FLIPR primary screening assay employing the stable recombinant GH4C1 cell line expressing the alpha7 nAChR. Hits identified were validated further by generation of concentration-response curves.
# T1 sequence (Q05941 23-502): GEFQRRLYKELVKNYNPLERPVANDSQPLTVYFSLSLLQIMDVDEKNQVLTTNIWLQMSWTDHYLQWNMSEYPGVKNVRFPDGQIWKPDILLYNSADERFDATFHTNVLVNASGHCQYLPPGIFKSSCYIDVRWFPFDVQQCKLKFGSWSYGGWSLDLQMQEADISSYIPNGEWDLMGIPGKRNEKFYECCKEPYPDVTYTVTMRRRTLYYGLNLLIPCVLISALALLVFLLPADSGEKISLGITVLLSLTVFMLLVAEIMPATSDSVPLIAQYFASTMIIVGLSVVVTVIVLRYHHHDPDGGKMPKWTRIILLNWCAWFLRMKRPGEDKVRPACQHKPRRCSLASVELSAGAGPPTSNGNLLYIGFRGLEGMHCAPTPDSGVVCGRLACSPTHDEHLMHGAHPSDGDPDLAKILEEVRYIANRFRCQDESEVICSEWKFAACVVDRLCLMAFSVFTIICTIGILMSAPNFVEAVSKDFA
compound,measurement,value
C[N+]1(C)CCN(c2ccccc2)CC1 [DMPP],EC50,0.98 ± 0.47 µM
